Measured values reported in patent publication US20160237071A1, “T-TYPE CALCIUM CHANNEL INHIBITOR” (NISSAN CHEMICAL INDUSTRIES, LTD., priority 2013, published 2016).
pIC50: −log10 of the molar value.

These compounds were tested against T1, Human T-type calcium channel (Cav 3.2) (Homo sapiens, UniProt O95180) (assay: Calcium influx inhibition assay). Details: T-type calcium channel inhibition concentration; Cav 3.2 expressing HEK293 cells, FLIPR Calcium 4 fluorescence; read-out: C50.
T1 construct: Edward Perez-Reyes, University of Virginia, USA; host or cells: HEK293
T1 sequence (O95180 whole entry): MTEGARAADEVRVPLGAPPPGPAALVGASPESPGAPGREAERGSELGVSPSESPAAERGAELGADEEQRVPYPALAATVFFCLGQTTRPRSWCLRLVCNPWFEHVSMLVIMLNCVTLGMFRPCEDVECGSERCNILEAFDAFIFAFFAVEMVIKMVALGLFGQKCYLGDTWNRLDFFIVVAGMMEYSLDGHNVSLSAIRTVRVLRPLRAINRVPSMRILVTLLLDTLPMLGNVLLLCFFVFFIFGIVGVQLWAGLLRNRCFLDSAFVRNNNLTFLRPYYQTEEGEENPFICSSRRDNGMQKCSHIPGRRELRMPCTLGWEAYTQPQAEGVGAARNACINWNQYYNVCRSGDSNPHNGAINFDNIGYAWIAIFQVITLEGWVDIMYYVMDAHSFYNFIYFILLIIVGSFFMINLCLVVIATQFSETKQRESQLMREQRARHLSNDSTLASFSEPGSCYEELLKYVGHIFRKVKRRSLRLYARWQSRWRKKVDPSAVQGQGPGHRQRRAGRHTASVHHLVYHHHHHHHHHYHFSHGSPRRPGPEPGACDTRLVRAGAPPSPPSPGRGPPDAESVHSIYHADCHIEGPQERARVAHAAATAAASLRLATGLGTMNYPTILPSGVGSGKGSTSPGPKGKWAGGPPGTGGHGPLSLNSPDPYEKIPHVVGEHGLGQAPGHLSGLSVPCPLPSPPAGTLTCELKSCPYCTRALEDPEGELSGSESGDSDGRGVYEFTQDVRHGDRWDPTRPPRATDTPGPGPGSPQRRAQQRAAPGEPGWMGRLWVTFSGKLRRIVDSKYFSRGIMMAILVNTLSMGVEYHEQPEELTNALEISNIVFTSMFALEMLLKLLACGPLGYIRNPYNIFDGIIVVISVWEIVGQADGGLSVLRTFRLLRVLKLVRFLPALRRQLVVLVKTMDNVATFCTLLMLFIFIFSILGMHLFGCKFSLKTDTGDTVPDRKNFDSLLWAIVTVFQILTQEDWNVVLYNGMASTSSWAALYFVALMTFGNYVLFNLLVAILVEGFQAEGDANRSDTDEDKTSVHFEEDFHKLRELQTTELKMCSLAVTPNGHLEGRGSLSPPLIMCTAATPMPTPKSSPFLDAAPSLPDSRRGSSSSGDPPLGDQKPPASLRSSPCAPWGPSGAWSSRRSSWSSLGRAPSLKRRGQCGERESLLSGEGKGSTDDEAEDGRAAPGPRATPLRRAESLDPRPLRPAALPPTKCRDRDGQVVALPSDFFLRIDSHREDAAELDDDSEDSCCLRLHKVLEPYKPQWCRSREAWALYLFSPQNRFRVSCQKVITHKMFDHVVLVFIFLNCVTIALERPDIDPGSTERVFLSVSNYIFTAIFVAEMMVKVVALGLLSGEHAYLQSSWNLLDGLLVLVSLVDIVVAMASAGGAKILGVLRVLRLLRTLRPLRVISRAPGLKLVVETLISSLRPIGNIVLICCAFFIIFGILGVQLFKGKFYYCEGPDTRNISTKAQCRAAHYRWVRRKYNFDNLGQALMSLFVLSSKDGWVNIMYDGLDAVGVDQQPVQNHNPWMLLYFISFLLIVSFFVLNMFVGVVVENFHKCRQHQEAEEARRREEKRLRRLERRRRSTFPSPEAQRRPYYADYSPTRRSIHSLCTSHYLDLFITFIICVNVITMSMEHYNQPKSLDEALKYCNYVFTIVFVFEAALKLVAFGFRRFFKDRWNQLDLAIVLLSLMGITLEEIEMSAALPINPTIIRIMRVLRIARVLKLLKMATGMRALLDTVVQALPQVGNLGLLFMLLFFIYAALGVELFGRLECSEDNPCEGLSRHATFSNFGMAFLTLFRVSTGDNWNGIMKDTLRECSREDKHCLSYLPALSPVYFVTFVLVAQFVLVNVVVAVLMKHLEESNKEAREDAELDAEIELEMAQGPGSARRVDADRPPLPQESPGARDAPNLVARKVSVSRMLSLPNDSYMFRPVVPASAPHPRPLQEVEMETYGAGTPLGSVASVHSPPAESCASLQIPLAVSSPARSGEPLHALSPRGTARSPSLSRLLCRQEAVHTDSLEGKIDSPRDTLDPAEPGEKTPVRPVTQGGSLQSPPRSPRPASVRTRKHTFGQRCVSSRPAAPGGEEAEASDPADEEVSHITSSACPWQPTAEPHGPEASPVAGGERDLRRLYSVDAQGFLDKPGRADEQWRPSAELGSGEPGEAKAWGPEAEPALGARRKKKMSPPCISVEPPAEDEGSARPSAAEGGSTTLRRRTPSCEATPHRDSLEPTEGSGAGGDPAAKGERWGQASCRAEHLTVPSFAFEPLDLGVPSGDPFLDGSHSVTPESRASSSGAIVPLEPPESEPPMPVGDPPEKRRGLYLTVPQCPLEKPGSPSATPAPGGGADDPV
Assay type: cell-based
Description: Human T-type calcium channel (Cav 3.2) expressing HEK293 cells were obtained from Prof. Edward Perez-Reyes, University of Virginia, USA. The calcium-sensitive fluorescent dye used was FLIPR Calcium 4 Assay Kit (Molecular Devices).
To a black 96-well plate with a clear bottom coated with type I collagen, the human T-type calcium channel (Cav 3.2) expressing HEK293 cells were seeded and cultured overnight, and the culture medium was removed. A solution of the calcium-sensitive fluorescent dye was added, and the whole was incubated at 37° C. in an atmosphere of 5% carbon dioxide for 30 minutes. To the plate, a diluted solution of a compound was added, and the whole was further incubated at 37° C. in an atmosphere of 5% carbon dioxide for 30 minutes. While fluorescence was continuously analyzed from the bottom with a FlexStation 3 (Molecular Devices), a calcium solution was added. […] From the rise in the fluorescence from the base line, the inhibition percentage was calculated. The logarithms of compound concentrations were plotted with respect to the inhibition activities to obtain an IC50 value (50% inhibition concentration).

First: COc1ccc2c(c1)/C(=N/O)CN(c1nc(C)n(Cc3ccc(C(F)(F)F)s3)c(=O)n1)C2 [compound 37]
Second: COc1ccc2c(c1)C(=O)CN(c1nc(C)n(Cc3ccc(C(F)(F)F)s3)c(=O)n1)C2 [compound 36]
The pIC50 of the first is 0.61 log units higher: 6.89 for the first, 6.28 for the second. The first is the more potent here.

O=c1nc(N2CCc3cc(OCC(F)(F)F)ccc3C2)ncn1Cc1ccc(C(F)(F)F)s1 [compound 13] and O=c1nc(N2CCc3cc(C(F)(F)F)ccc3C2)ncn1Cc1ccc(C(F)(F)F)s1 [compound 1] are within 0.2 log units of each other in pIC50: 7.26 for the first, 7.21 for the second.

First: COc1ccc2c(c1)CCN(c1nc(C)n(Cc3cnc(C(F)(F)F)s3)c(=O)n1)C2 [compound 24]
Second: Cc1nc(N2CCc3cc(OCC(F)(F)F)ccc3C2)nc(=O)n1Cc1cnc(C(F)(F)F)s1 [compound 5]
The pIC50 of the first is 0.46 log units lower: 6.03 for the first, 6.49 for the second.

First: COc1ccc2c(c1)CCN(c1nc(C)n(Cc3ccc(C(F)(F)F)s3)c(=O)n1)CC2 [compound 29]
Second: COc1ccc2c(c1)CCCN(c1nc(C)n(Cc3ccc(C(F)(F)F)s3)c(=O)n1)C2 [compound 49]
The pIC50 of the first is 1.08 log units higher: 7.40 for the first, 6.32 for the second. The first is the more potent here.

First: Cc1nc(N2Cc3ccc(OC(C)C)cc3C(O)C2)nc(=O)n1Cc1ccc(C(F)(F)F)s1 (stereo not drawn) [compound 38]
Second: Cc1nc(N2Cc3ccc(OCC(C)C)cc3C(O)C2)nc(=O)n1Cc1ccc(C(F)(F)F)s1 (stereo not drawn) [compound 39]
The pIC50 of the first is 0.30 log units higher: 7.42 for the first, 7.12 for the second. The first is the more potent here.

Cc1nc(N2CCc3c(Cl)ccc(Cl)c3C2)nc(=O)n1Cc1ccc(C(F)(F)F)s1 [compound 28] and Cc1nc(N2CCc3nc(Cl)ccc3C2)nc(=O)n1Cc1ccc(C(F)(F)F)s1 [compound 17] are within 0.2 log units of each other in pIC50: 6.49 for the first, 6.46 for the second.

COc1ccc2c(c1)C(O)CN(c1nc(C)n(Cc3ccc(OS(=O)(=O)C(F)(F)F)nc3)c(=O)n1)C2 (stereo not drawn) [compound 10] and COc1ccc2c(c1)C(O)CN(c1nc(C)n(Cc3cnc(C(F)(F)F)s3)c(=O)n1)C2 (stereo not drawn) [compound 25] are within 0.2 log units of each other in pIC50: 6.49 for the first, 6.35 for the second.

Compared with CCOC(=O)C1Cc2ccccc2CN1c1nc(C)n(Cc2ccc(C(F)(F)F)s2)c(=O)n1 (stereo not drawn) [compound 27], Cc1nc(N2CCc3ccccc3C2)nc(=O)n1Cc1ccc(C(F)(F)F)s1 [compound 44] is 0.94 log units higher in pIC50: 5.55 for the first, 6.49 for the second.

Compared with Cc1nc(N2CCc3cc(F)ccc3C2)nc(=O)n1Cc1ccc(C(F)(F)F)s1 [compound 52], Cc1nc(N2CCc3cc(OC(F)F)ccc3C2)nc(=O)n1Cc1ccc(C(F)(F)F)s1 [compound 14] is 0.81 log units higher in pIC50: 6.54 for the first, 7.35 for the second. The second is the more potent here.

First: Cc1nc(N2CCc3cc(Cl)ncc3C2)nc(=O)n1Cc1ccc(C(F)(F)F)s1 [compound 16]
Second: Cc1cc2c(s1)CCN(c1nc(C)n(Cc3ccc(C(F)(F)F)s3)c(=O)n1)C2 [compound 19]
The pIC50 of the first is 0.40 log units lower: 6.19 for the first, 6.59 for the second. The second is the more potent here.

Compared with Cc1nc(N2Cc3ccc(O)cc3C(O)C2)nc(=O)n1Cc1ccc(C(F)(F)F)s1 (stereo not drawn) [compound 42], COc1ccc2c(c1)[C@@H](O)CN(c1nc(C)n(Cc3ccc(C(F)(F)F)s3)c(=O)n1)C2 [9a] is 1.77 log units higher in pIC50: 6.54 for the first, 8.31 for the second.

Going from Cc1nc(N2Cc3cc4c(cc3C(O)C2)OCO4)nc(=O)n1Cc1ccc(C(F)(F)F)s1 (stereo not drawn) [compound 54] to COc1ccc2c(c1)CN(c1nc(C)n(Cc3ccc(C(F)(F)F)s3)c(=O)n1)CC2O (stereo not drawn) [8b], the pIC50 falls from 7.38 to 6.10 (1.28 log units). The first is the more potent here.

CCOc1ccc2c(c1)C(O)CN(c1nc(C)n(Cc3ccc(C(F)(F)F)s3)c(=O)n1)C2 (stereo not drawn) [compound 18] and COc1ccc2c(c1)C(O)CN(c1nc(C)n(Cc3ccc(C(F)(F)F)s3)c(=O)n1)C2 (stereo not drawn) [compound 4] are within 0.2 log units of each other in pIC50: 7.74 for the first, 7.70 for the second.

First: Cc1nc(N2CCc3c([nH]c4cc(F)ccc34)C2)nc(=O)n1Cc1ccc(C(F)(F)F)s1 [compound 57]
Second: Cc1nc(N2CCc3c([nH]c4cc(F)ccc34)C2)nc(=O)n1Cc1cnc(C(F)(F)F)s1 [compound 58]
The pIC50 of the first is 0.91 log units higher: 8.19 for the first, 7.28 for the second. The first is the more potent here.

Compared with Cc1nc(N2Cc3ccc(OCC4CC4)cc3C(O)C2)nc(=O)n1Cc1ccc(C(F)(F)F)s1 (stereo not drawn) [compound 47], COc1ccc2c(c1)[C@H](O)CN(c1nc(C)n(Cc3ccc(C(F)(F)F)s3)c(=O)n1)C2 [9b] is 0.39 log units lower in pIC50: 7.28 for the first, 6.89 for the second. The first is the more potent here.

First: N#Cc1ccc2c(c1)CN(c1ncn(Cc3ccc(C(F)(F)F)s3)c(=O)n1)CC2 [compound 6]
Second: O=c1nc(N2CCc3cc(OC(F)F)ccc3C2)ncn1Cc1ccc(C(F)(F)F)s1 [compound 11]
The pIC50 of the first is 1.73 log units lower: 5.74 for the first, 7.47 for the second. The second is the more potent here.

Compared with COc1ccc2c(c1OC)C(O)CN(c1nc(C)n(Cc3ccc(C(F)(F)F)s3)c(=O)n1)C2 (stereo not drawn) [compound 50], COc1cccc2c1C(O)CN(c1nc(C)n(Cc3ccc(C(F)(F)F)s3)c(=O)n1)C2 (stereo not drawn) [8a] is 0.81 log units higher in pIC50: 6.39 for the first, 7.20 for the second.

Cc1nc(N2Cc3ccc(OCC(F)(F)F)cc3C2)nc(=O)n1Cc1ccc(C(F)(F)F)s1 [compound 46] and Cc1nc(N2CCc3cc(OCC(F)(F)F)ccc3C2)nc(=O)n1Cc1ccc(C(F)(F)F)s1 [compound 40] are within 0.2 log units of each other in pIC50: 6.44 for the first, 6.60 for the second.

Compared with Cc1nc(N2CCc3ccccc32)nc(=O)n1Cc1ccc(C(F)(F)F)s1 [compound 34], Cc1ccc2c(n1)CCN(c1nc(C)n(Cc3ccc(C(F)(F)F)s3)c(=O)n1)C2 [compound 30] is 0.63 log units lower in pIC50: 6.12 for the first, 5.49 for the second.

CCOC(=O)c1cc2c(s1)CCN(c1nc(C)n(Cc3ccc(C(F)(F)F)s3)c(=O)n1)C2 [compound 51] and Cc1nc(N2CCc3sc(CO)cc3C2)nc(=O)n1Cc1ccc(C(F)(F)F)s1 [compound 20] are within 0.2 log units of each other in pIC50: 6.47 for the first, 6.40 for the second.

Going from COc1ccc2c(c1)C(F)CN(c1nc(C)n(Cc3ccc(C(F)(F)F)s3)c(=O)n1)C2 (stereo not drawn) [compound 35] to COc1ccc2c(c1)C(N)CN(c1nc(C)n(Cc3ccc(C(F)(F)F)s3)c(=O)n1)C2 (stereo not drawn) [compound 32], the pIC50 rises from 7.29 to 7.57 (0.28 log units). The second is the more potent here.

Compared with Cc1nc(N2Cc3ccc(OC(F)F)cc3C(O)C2)nc(=O)n1Cc1ccc(C(F)(F)F)s1 (stereo not drawn) [compound 53], Cc1nc(N2Cc3ccc(OCC(F)(F)F)cc3C(O)C2)nc(=O)n1Cc1ccc(C(F)(F)F)s1 (stereo not drawn) [compound 15] is 0.26 log units higher in pIC50: 7.74 for the first, 8.00 for the second.

COc1nc2c(s1)CN(c1nc(C)n(Cc3ccc(C(F)(F)F)s3)c(=O)n1)CC2 [compound 21] and COc1ccc2c(n1)CCN(c1nc(C)n(Cc3ccc(C(F)(F)F)s3)c(=O)n1)C2 [compound 22] are within 0.2 log units of each other in pIC50: 6.44 for the first, 6.51 for the second.

Compared with COc1ccc2c(c1)C(O)CN(c1nc(C)n(Cc3ccc(F)cc3)c(=O)n1)C2 (stereo not drawn) [compound 26], Cc1nc(N2Cc3ccc(OCC(N)=O)cc3C(O)C2)nc(=O)n1Cc1ccc(C(F)(F)F)s1 (stereo not drawn) [compound 45] is 0.97 log units higher in pIC50: 5.52 for the first, 6.49 for the second.

Cc1nc(N2CCc3nc(C4CC4)ccc3C2)nc(=O)n1Cc1ccc(C(F)(F)F)s1 [compound 31] and Cc1nc(N2CCc3ccc(C(F)(F)F)cc3C2)nc(=O)n1Cc1ccc(C(F)(F)F)s1 [compound 43] are within 0.2 log units of each other in pIC50: 6.62 for the first, 6.49 for the second.

Going from COc1ccc2c(c1)C(O)CN(c1ncn(Cc3ccc(C(F)(F)F)s3)c(=O)n1)C2 (stereo not drawn) [compound 3] to O=c1nc(N2CCc3cc(OS(=O)(=O)C(F)(F)F)ccc3C2)ncn1Cc1ccc(C(F)(F)F)s1 [compound 12], the pIC50 rises from 7.02 to 7.27 (0.25 log units).

Compared with Cc1nc(N2CCn3c(nc4cc(F)ccc43)C2)nc(=O)n1Cc1ccc(C(F)(F)F)s1 [compound 59], COc1ccc2c(c1)CN(c1nc(C)n(Cc3ccc(C(F)(F)F)s3)c(=O)n1)C2 [compound 48] is 0.85 log units lower in pIC50: 6.57 for the first, 5.72 for the second.

Going from COc1cc2c(cc1OC)CN(c1ncn(Cc3ccc(C(F)(F)F)s3)c(=O)n1)CC2 [compound 2] to Cc1nc(N2CCc3cc(OS(=O)(=O)C(F)(F)F)ccc3C2)nc(=O)n1Cc1ccc(C(F)(F)F)s1 [compound 41], the pIC50 rises from 6.27 to 7.30 (1.03 log units). The second is the more potent here.

Work on Cc1nc(N2Cc3ccc(OCC(F)(F)F)cc3C(O)C2)nc(=O)n1Cc1cnc(C(F)(F)F)s1 (stereo not drawn) [compound 23] yielded a pIC50 of 6.47.
